# Experiments:
# Experiment in all cases: relative viability (nuclei count vs DMSO), 5 days (fraction); higher = more cells survive
# Veliparib + Alpelisib = compound: C[C@]1(c2nc3c(C(N)=O)cccc3[nH]2)CCCN1 [Veliparib] + Cc1nc(NC(=O)N2CCC[C@H]2C(N)=O)sc1-c1ccnc(C(C)(C)C(F)(F)F)c1 [Alpelisib] (partner 2 µM)
# Outline: (§1)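 Five library-drug doses in √10 steps were combined with a fixed anchor-drug dose, or a single drug was given alone, by pin tool to lung cancer cell lines in 1536-well plates the day after seeding. Nuclei were stained and counted after 5 days. Relative viability is the nuclei count in treated wells over that in vehicle wells, taken as the median of duplicate plates.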
# [1] = compound: COC1=CC=C(C=C1)CN2C=CC3=C2C=C(C=C3)C(=O)NO + N=C(N)NC(=N)NCCc1ccccc1 [Phenformin] (partner 250 µM)
# Outline: as §1
# [2] = compound: COC1=CC=C(C=C1)CN2C=CC3=C2C=C(C=C3)C(=O)NO + O=C(CCCCCCC(=O)Nc1ccccc1)NO [Vorinostat] (partner 1 µM)
# Outline: as §1
# [3] = compound: COC1=CC=C(C=C1)CN2C=CC3=C2C=C(C=C3)C(=O)NO + C[C@]1(O)C[C@@H](c2nc(-c3ccc4ccc(-c5ccccc5)nc4c3)c3c(N)nccn32)C1 [Linsitinib] (partner 1 µM)
# Outline: as §1
cell line,measurement,setting,value
SW 1573,relative viability,Veliparib + Alpelisib; first compound 0.02 µM,0.803
same,relative viability,Veliparib + Alpelisib; first compound 0.06325 µM,0.867
same,relative viability,Veliparib + Alpelisib; first compound 0.2 µM,0.791
same,relative viability,Veliparib + Alpelisib; first compound 0.6325 µM,0.675
same,relative viability,Veliparib + Alpelisib; first compound 2 µM,0.805
same,relative viability,[1]; first compound 0.253 µM,0.368
same,relative viability,[1]; first compound 0.8 µM,0.426
same,relative viability,[1]; first compound 2.53 µM,0.379
same,relative viability,[1]; first compound 8 µM,0.331
same,relative viability,[2]; first compound 0.253 µM,0.76
same,relative viability,[2]; first compound 0.8 µM,0.804
same,relative viability,[2]; first compound 2.53 µM,0.818
same,relative viability,[2]; first compound 8 µM,0.622
same,relative viability,[3]; first compound 0.253 µM,0.835
same,relative viability,[3]; first compound 0.8 µM,0.761
same,relative viability,[3]; first compound 2.53 µM,0.666
same,relative viability,[3]; first compound 8 µM,0.514

# Source: the supplement of paper PMC10307832
